Test results reported in PubChem BioAssay AID256 (DTP/NCI, 2004).
Values joined by “and” are separate entries in the source; they are usually repeats but may differ in a detail not shown here. Identical values can stand only once. Inconclusive results and toxic doses are left out. The calls were made as follows: active = survival T/C of 150% or more; inactive = T/C below 125% in these data.

Tested on: CD2F1 mice, L1210 leukemia ip, survival T/C
Experiment: NCI In Vivo Anticancer Drug Screen. Data for tumor model L1210 Leukemia (intraperitoneal) in CD2F1 (CDF1) mice
Conditions: endpoint: mean survival time, higher = longer survival
Procedure, shortened: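 In this screen, transplantable tumors were grown in mice given either the compound or its vehicle. Results were expressed as the treated measurement relative to the control measurement.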

[1] = dose: 100.0 mg/kg/injection, schedule: Q01DX001 (ip), vehicle: saline with Tween-80
[2] = dose: 200.0 mg/kg/injection, schedule: Q01DX001 (ip), vehicle: saline with Tween-80
[3] = dose: 400.0 mg/kg/injection, schedule: Q01DX001 (ip), vehicle: saline with Tween-80
[4] = dose: 12.5 mg/kg/injection, schedule: Q01DX009 (ip), vehicle: saline with Tween-80
[5] = dose: 25.0 mg/kg/injection, schedule: Q01DX009 (ip), vehicle: saline with Tween-80
[6] = dose: 100.0 mg/kg/injection, schedule: Q01DX009 (ip), vehicle: saline
[7] = dose: 200.0 mg/kg/injection, schedule: Q01DX009 (ip), vehicle: saline
[8] = dose: 100.0 mg/kg/injection, schedule: Q04DX003 (ip), vehicle: saline with Tween-80
[9] = dose: 200.0 mg/kg/injection, schedule: Q04DX003 (ip), vehicle: saline with Tween-80
[10] = dose: 50.0 mg/kg/injection, schedule: Q01DX009 (ip), vehicle: saline with Tween-80
[11] = dose: 100.0 mg/kg/injection, schedule: Q01DX009 (ip), vehicle: saline with Tween-80
[12] = dose: 200.0 mg/kg/injection, schedule: Q01DX009 (ip), vehicle: saline with Tween-80

Measured: T/C

S=C(Nc1ccccc1)Nc1ccccn1
inactive: [1] 97 % of control | [2] 105 % of control | [3] 109 % of control

O/N=C/c1ccccn1
inactive: dose: 75.0 mg/kg/injection, schedule: Q04DX003 (ip), vehicle: saline with Tween-80 96 % of control | dose: 150.0 mg/kg/injection, schedule: Q04DX003 (ip), vehicle: saline with Tween-80 104 % of control | dose: 300.0 mg/kg/injection, schedule: Q04DX003 (ip), vehicle: saline with Tween-80 98 % of control

Cc1ccc(CNc2ccc(C)c(Cl)c2)cc1
inactive: dose: 100.0 mg/kg/injection, schedule: Q04DX003 (ip), vehicle: other 101 % of control | dose: 200.0 mg/kg/injection, schedule: Q04DX003 (ip), vehicle: other 97 % of control | dose: 400.0 mg/kg/injection, schedule: Q04DX003 (ip), vehicle: other 96 % of control

NC(=O)c1cc2c(N)[nH]nc2nc1N
inactive: dose: 6.25 mg/kg/injection, schedule: Q01DX009 (ip), vehicle: saline with Tween-80 97 % of control | dose: 6.25 mg/kg/injection, schedule: Q04DX003 (ip), vehicle: saline with Tween-80 94 % of control | [4] 103 % of control | dose: 12.5 mg/kg/injection, schedule: Q04DX003 (ip), vehicle: saline with Tween-80 97 % of control | [5] 92 % of control | dose: 25.0 mg/kg/injection, schedule: Q04DX003 (ip), vehicle: saline with Tween-80 92 % of control

Cc1nc(=O)cnn1C1OC(CO)C(O)C1O (stereo not given)
inactive: dose: 12.5 mg/kg/injection, schedule: Q01DX005 (ip), vehicle: distilled water + Tween-80 102 % of control | dose: 25.0 mg/kg/injection, schedule: Q01DX005 (ip), vehicle: distilled water + Tween-80 102 % of control | dose: 50.0 mg/kg/injection, schedule: Q01DX005 (ip), vehicle: distilled water + Tween-80 97 % of control | dose: 100.0 mg/kg/injection, schedule: Q01DX005 (ip), vehicle: distilled water + Tween-80 103 % of control | dose: 200.0 mg/kg/injection, schedule: Q01DX005 (ip), vehicle: distilled water + Tween-80 105 % of control

NC(CSC(c1ccccc1)(c1ccccc1)c1ccc(-c2ccccc2)cc1)C(=O)O (stereo not given)
inactive: dose: 50.0 mg/kg/injection, schedule: Q01DX009 (ip), vehicle: saline 111 % of control | [6] 108 % of control | [7] 105 % of control | dose: 400.0 mg/kg/injection, schedule: Q01DX009 (ip), vehicle: saline 100 % of control

NNC(=O)CCCCCCCCCCCCCCO
inactive: [2] 87 % of control | [3] 90 % of control

N=C(N)N(CCS)CC(=O)O
inactive: [2] 87 % of control | [3] 90 % of control

CC(=O)N1CCC2(CC1)SSC1(CCN(C(C)=O)CC1)S2
inactive: dose: 5.0 mg/kg/injection, schedule: Q01DX009 (ip), vehicle: saline with Tween-80 102 % of control | dose: 5.0 mg/kg/injection, schedule: Q04DX003 (ip), vehicle: saline with Tween-80 92 % of control | dose: 10.0 mg/kg/injection, schedule: Q01DX009 (ip), vehicle: saline with Tween-80 103 % of control | dose: 10.0 mg/kg/injection, schedule: Q04DX003 (ip), vehicle: saline with Tween-80 91 % of control | dose: 20.0 mg/kg/injection, schedule: Q01DX009 (ip), vehicle: saline with Tween-80 100 % of control | dose: 20.0 mg/kg/injection, schedule: Q04DX003 (ip), vehicle: saline with Tween-80 96 % of control

CC(C)CC(NC(=O)CN)C(=O)O (stereo not given)
inactive: dose: 100.0 mg/kg/injection, schedule: Q04DX002 (ip), vehicle: saline 93 % of control | dose: 200.0 mg/kg/injection, schedule: Q04DX002 (ip), vehicle: saline 96 % of control | dose: 400.0 mg/kg/injection, schedule: Q04DX002 (ip), vehicle: saline 107 % of control

O=c1ccn(C2OC(CO)C(O)C2C[N+](=O)[O-])c(=O)[nH]1 (stereo not given)
inactive: dose: 12.5 mg/kg/injection, schedule: Q01DX005 (ip), vehicle: water 96 % of control | dose: 25.0 mg/kg/injection, schedule: Q01DX005 (ip), vehicle: water 97 % of control | dose: 50.0 mg/kg/injection, schedule: Q01DX005 (ip), vehicle: water 94 % of control | dose: 100.0 mg/kg/injection, schedule: Q01DX005 (ip), vehicle: water 91 % of control | dose: 200.0 mg/kg/injection, schedule: Q01DX005 (ip), vehicle: water 88 % of control

COC(=O)C1OC(C)(C)OC1C(=O)OC (stereo not given)
inactive: dose: 1.56 mg/kg/injection, schedule: Q01DX001 (ip), vehicle: saline with Tween-80 103 % of control | dose: 3.12 mg/kg/injection, schedule: Q01DX001 (ip), vehicle: saline with Tween-80 100 % of control | dose: 6.25 mg/kg/injection, schedule: Q01DX001 (ip), vehicle: saline with Tween-80 95 % of control

CCCCCCCCC(=O)CCCC
inactive: dose: 100.0 mg/kg/injection, schedule: Q04DX003 (ip), vehicle: saline 102 % of control | dose: 200.0 mg/kg/injection, schedule: Q04DX003 (ip), vehicle: saline 100 % of control | dose: 400.0 mg/kg/injection, schedule: Q04DX003 (ip), vehicle: saline 98 % of control

CCCC(P(=O)(c1ccccc1)c1ccccc1)[P+](CC)(c1ccccc1)c1ccccc1 (stereo not given)
inactive: dose: 6.25 mg/kg/injection, schedule: Q04DX002 (ip), vehicle: saline with Tween-80 100 % of control | dose: 12.5 mg/kg/injection, schedule: Q04DX002 (ip), vehicle: saline with Tween-80 96 % of control | dose: 25.0 mg/kg/injection, schedule: Q04DX002 (ip), vehicle: saline with Tween-80 92 % of control

C=CC1(O)CCCCC1
inactive: [1] 100 % of control | [2] 100 % of control | [3] 97 % of control

Cc1ccc(CCCC(=O)O)c(C)c1
inactive: [8] 104 % of control | [9] 93 % of control | dose: 400.0 mg/kg/injection, schedule: Q04DX003 (ip), vehicle: saline with Tween-80 98 % of control

C=C(C)/C([O-])=N/[N+](C)(C)CC(O)CCCCCCCCCCCC (stereo not given)
inactive: dose: 25.0 mg/kg/injection, schedule: Q01DX001 (ip), vehicle: saline 96 % of control and 97 % of control | dose: 50.0 mg/kg/injection, schedule: Q01DX001 (ip), vehicle: saline 97 % of control and 100 % of control | [10] 94 % of control | dose: 100.0 mg/kg/injection, schedule: Q01DX001 (ip), vehicle: saline 96 % of control and 97 % of control | [11] 94 % of control | dose: 200.0 mg/kg/injection, schedule: Q01DX001 (ip), vehicle: saline 93 % of control and 100 % of control | [12] 97 % of control

COc1cc2c(ccc3cc4cccc[n+]4cc32)c(Br)c1OC
inactive: [4] 98 % of control | dose: 12.5 mg/kg/injection, schedule: Q04DX003 (ip), vehicle: saline sonified 97 % of control | [5] 100 % of control | dose: 25.0 mg/kg/injection, schedule: Q04DX003 (ip), vehicle: saline sonified 97 % of control | [10] 100 % of control | dose: 50.0 mg/kg/injection, schedule: Q04DX003 (ip), vehicle: saline sonified 103 % of control

CN1CCCC(OC(=O)N(C)C)C1 (stereo not given)
inactive: [6] 96 % of control | [7] 98 % of control

O=C(O)CCCC(=O)C1CCCCC1
inactive: [10] 103 % of control | [11] 103 % of control | [8] 95 % of control | [12] 98 % of control | [9] 90 % of control

Cc1cc(C(=O)O)c(C)c([N+](=O)[O-])c1
inactive: [1] 96 % of control | [2] 96 % of control | [3] 100 % of control
